Data from ChEMBL document CHEMBL4270520, “From hit to lead: Structure-based discovery of naphthalene-1-sulfonamide derivatives as potent and selective inhibitors of fatty acid binding protein 4” (Eur J Med Chem, 2018).

How the values were obtained:
[1] = target: T1, Fatty acid-binding protein, adipocyte (Homo sapiens, UniProt P15090)
Description: Displacement of 1,8-ANS from FABP4 (unknown origin) after 3 mins by fluorescence assay

[2] = target: Fatty acid-binding protein, heart (Homo sapiens, UniProt P05413); assay: Inhibition of FABP3 (unknown origin)
3T3-L1 = assay: Cytotoxicity against mouse 3T3L1 pre-adipocytes assessed as effect on cell viability up to 80 uM after 24 hrs by MTT assay; type: cell-based; settings: 3t3-l1, 24 h
[3] = Half life in human liver microsomes at 0.1 uM by HPLC-MS/MS analysis; type: ADME, microsome
[4] = Half life in rat liver microsomes at 0.1 uM by HPLC-MS/MS analysis; type: ADME, microsome
[5] = Half life in mouse liver microsomes at 0.1 uM by HPLC-MS/MS analysis; type: ADME, microsome
[6] = Intrinsic clearance in human liver microsomes assessed per gram of protein at 0.1 uM by HPLC-MS/MS analysis; type: ADME, microsome
[7] = Intrinsic clearance in rat liver microsomes assessed per gram of protein at 0.1 uM by HPLC-MS/MS analysis; type: ADME, microsome
[8] = Intrinsic clearance in mouse liver microsomes assessed per gram of protein at 0.1 uM by HPLC-MS/MS analysis; type: ADME, microsome
[9] = Stability in human liver microsomes assessed as parent compound remaining at 0.1 uM after 60 mins by HPLC-MS/MS analysis; type: ADME, microsome; settings: read-out: Stability
[10] = Stability in rat liver microsomes assessed as parent compound remaining at 0.1 uM after 60 mins by HPLC-MS/MS analysis; type: ADME, microsome; settings: read-out: Stability
[11] = Stability in mouse liver microsomes assessed as parent compound remaining at 0.1 uM after 60 mins by HPLC-MS/MS analysis; type: ADME, microsome; settings: read-out: Stability
Mus musculus [12] = assay: Toxicity in C57BL/Ksj db/db mouse assessed as body weight loss at 100 mg/kg, po administered once daily via lavage for 5 weeks measured daily during compound dosing; type: organism-based; settings: in vivo, 840 h
Mus musculus [13] = assay: Hepatotoxicity in C57BL/Ksj db/db mouse at 100 mg/kg, po administered once daily via lavage for 5 weeks measured daily during compound dosing; type: toxicity, organism-based; settings: in vivo, 840 h
Mus musculus [14] = assay: Renal toxicity in C57BL/Ksj db/db mouse at 100 mg/kg, po administered once daily via lavage for 5 weeks measured daily during compound dosing; type: organism-based; settings: in vivo, 840 h
Mus musculus [15] = assay: Toxicity in C57BL/Ksj db/db mouse assessed as effect on pancreas at 100 mg/kg, po administered once daily via lavage for 5 weeks measured daily during compound dosing; type: organism-based; settings: in vivo, 840 h
Mus musculus [16] = assay: Toxicity in C57BL/Ksj db/db mouse assessed as effect on abdominal adipose tissue lipid content at 100 mg/kg, po administered once daily via lavage for 5 weeks measured daily during compound dosing; type: organism-based; settings: in vivo, 840 h
Mus musculus [17] = assay: Effect on total cholesterol levels in C57BL/Ksj db/db mouse at 100 mg/kg, po administered once daily via lavage for 2 to 4 weeks; type: ADME, organism-based; settings: in vivo
Mus musculus [18] = assay: Antidiabetic activity in C57BL/Ksj db/db mouse assessed as reduction in fasting blood glucose level at 100 mg/kg, po administered once daily via lavage for 14 to 35 days relative to control; type: functional; parameters: scale not given: the % may be the effect or the level left
in vitro = settings: mouse, plasma
Description: Protein binding in mouse plasma at 1 uM after 16 hrs by LC-MS/MS analysis

[19] = target: T1, Fatty acid-binding protein, adipocyte; assay: Binding affinity to FABP4 (unknown origin) by isothermal calorimetric titration method

T1 sequence (P15090 whole entry): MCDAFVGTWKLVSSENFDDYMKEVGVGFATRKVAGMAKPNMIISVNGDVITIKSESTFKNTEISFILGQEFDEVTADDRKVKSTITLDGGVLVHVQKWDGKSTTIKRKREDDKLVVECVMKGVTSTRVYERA
Sequence of Fatty acid-binding protein, heart (P05413 whole entry): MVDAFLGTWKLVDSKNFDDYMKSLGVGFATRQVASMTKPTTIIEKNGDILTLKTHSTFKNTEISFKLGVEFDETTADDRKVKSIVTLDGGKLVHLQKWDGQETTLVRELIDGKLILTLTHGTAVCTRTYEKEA

O=C(O)CSCC(=O)Nc1cc(Cl)cc(Cl)c1
Ki [1]: 1660 nM

O=C(O)CCCCNS(=O)(=O)c1ccc(Cl)c2ccccc12
Ki [1]: 1850 nM

COc1ccc(S(=O)(=O)NCc2ccc(C(=O)O)cc2)c2ccccc12
Ki [1]: 760 nM

COc1ccc(S(=O)(=O)Nc2cc(C(=O)O)ccc2Cl)c2ccccc12
Ki [1]: 930 nM

COc1ccc(S(=O)(=O)NCc2cccc(C(=O)O)c2)c2ccccc12
Ki [1]: 2120 nM

COc1ccc(S(=O)(=O)Nc2cc(C(=O)O)c(F)cc2F)c2ccccc12
IC50 [2]: > 100000 nM | IC50 [1]: 1840 nM | Ki [1]: 230 nM

Cc1c(C)c(C)c(S(=O)(=O)NCCCCC(=O)O)c(C)c1C
Ki [1]: 910 nM

O=C(O)CCCCCNS(=O)(=O)c1cc(Cl)cc(Cl)c1
Ki [1]: 4840 nM

COc1ccc(S(=O)(=O)Nc2ccc(C(=O)O)cc2)c2ccccc12
Ki [1]: 1280 nM

COc1ccc(C(=O)O)cc1NS(=O)(=O)c1ccc(OC)c2ccccc12
Ki [1]: > 6140 nM

COc1ccc(S(=O)(=O)Nc2cccc(CCC(=O)O)c2)c2ccccc12
Ki [1]: 580 nM

COc1ccc(S(=O)(=O)Nc2ccc(F)c(C(=O)O)c2)c2ccccc12
IC50 [2]: > 100000 nM | Activity (3T3-L1): Non-Toxic | half-life at 0.1 µM [3]: 4.66 h | half-life at 0.1 µM [4]: 11.1 h | half-life at 0.1 µM [5]: 24.6 h | CLint [6]: 7.51 mL/min/g | CLint [7]: 3.15 mL/min/g | CLint [8]: 1.4 mL/min/g | remaining at 1 h, 0.1 µM [9]: 72.3% | remaining at 1 h, 0.1 µM [10]: 93.4% | remaining at 1 h, 0.1 µM [11]: 96.9% | Activity (Mus musculus [12]): Non-Toxic | Activity (Mus musculus [13]): Non-Toxic | Activity (Mus musculus [14]): Non-Toxic | Activity (Mus musculus [15]): Non-Toxic | Activity (Mus musculus [16]): Non-Toxic | Activity (Mus musculus [17]): Non-Toxic | Activity (Mus musculus [18]): 20 - 35% | IC50 [1]: 1690 nM | Ki [1]: 210 nM | fraction unbound at 16 h, 1 µM (in vitro): 0.0147

COc1ccc(S(=O)(=O)Nc2cc(Cl)cc(C(=O)O)c2)c2ccccc12
Ki [1]: 820 nM

O=C(O)CCNS(=O)(=O)c1cc(Cl)cc(Cl)c1
Ki [1]: 6510 nM

O=C(O)CCCCNS(=O)(=O)c1ccc(Br)c2ccccc12
Ki [1]: 1160 nM

COc1ccc(S(=O)(=O)Nc2cccc(C(=O)O)c2)c2ccccc12
IC50 [2]: > 100000 nM | IC50 [1]: 3220 nM | Ki [1]: 400 nM

Cc1cc(C)c(C)c(S(=O)(=O)NCCCCC(=O)O)c1C
Ki [1]: 1950 nM

COc1ccc(S(=O)(=O)Nc2cc(F)cc(C(=O)O)c2)c2ccccc12
Ki [1]: 1150 nM

COc1ccc(S(=O)(=O)Nc2cc(C(=O)O)ccc2C)c2ccccc12
Ki [1]: 2760 nM

O=C(O)CCCNC(=O)c1cc(Cl)cc(Cl)c1
Ki [1]: 4320 nM

O=C(O)CCCCNS(=O)(=O)c1ccc(F)c2ccccc12
Ki [1]: 2160 nM

COc1ccc(S(=O)(=O)Nc2ccc(CC(=O)O)cc2)c2ccccc12
Ki [1]: 1670 nM

O=C(O)CCCCNS(=O)(=O)c1cc(Cl)cc(Cl)c1
Ki [1]: 1190 nM

COc1ccc(S(=O)(=O)NC(C)c2cccc(C(=O)O)c2)c2ccccc12 (configuration not stated)
Ki [1]: > 6140 nM

COc1ccc(S(=O)(=O)Nc2cc(C(=O)O)ccn2)c2ccccc12
Ki [1]: > 6140 nM

COc1ccc(S(=O)(=O)Nc2cncc(C(=O)O)c2)c2ccccc12
Ki [1]: > 6140 nM

COc1ccc(S(=O)(=O)Nc2cccc(C(=O)O)c2C)c2ccccc12
Ki [1]: > 6140 nM

O=C(O)CCCNS(=O)(=O)c1cc(Cl)cc(Cl)c1
Ki [1]: 2550 nM

COc1ccc(S(=O)(=O)Nc2cccc(CC(=O)O)c2)c2ccccc12
Ki [1]: 840 nM

COc1ccc(S(=O)(=O)Nc2cccc(C(=O)O)c2F)c2ccccc12
Kd [19]: 6030 nM | Ki [1]: 7750 nM

COc1ccc(S(=O)(=O)Nc2ccc(F)c(C(=O)O)c2F)c2ccccc12
Ki [1]: 7380 nM

Cc1cc(C)c(S(=O)(=O)NCCCCC(=O)O)c(C)c1
Ki [1]: 2690 nM

COc1ccc(S(=O)(=O)Nc2ccc(C)c(C(=O)O)c2)c2ccccc12
Ki [1]: > 6140 nM

COc1ccc(S(=O)(=O)Nc2cc(C(=O)O)ccc2F)c2ccccc12
IC50 [2]: > 100000 nM | Activity (3T3-L1): Non-Toxic | half-life at 0.1 µM [3]: 4.99 h | half-life at 0.1 µM [4]: 12.1 h | half-life at 0.1 µM [5]: 14.3 h | CLint [6]: 7.02 mL/min/g | CLint [7]: 2.9 mL/min/g | CLint [8]: 2.4 mL/min/g | remaining at 1 h, 0.1 µM [9]: 73.6% | remaining at 1 h, 0.1 µM [10]: 93.9% | remaining at 1 h, 0.1 µM [11]: 94.8% | Activity (Mus musculus [12]): Non-Toxic | Activity (Mus musculus [13]): Non-Toxic | Activity (Mus musculus [14]): Non-Toxic | Activity (Mus musculus [15]): Non-Toxic | Activity (Mus musculus [16]): Non-Toxic | Activity (Mus musculus [17]): Non-Toxic | Activity (Mus musculus [18]): 20 - 35%

CC(C)NCC(O)COc1cccc2ccccc12 (configuration not stated) [PROPRANOLOL]
fraction unbound at 16 h, 1 µM (in vitro): 0.109
